Results published in patent publication US20230063321A1, “Methods for Treating Inflammatory Bowel Diseases with alpha4beta7 Integrin Antagonists” (Protagonist Therapeutics, Inc., priority 2020, published 2023).
Several values for one entry are separate records, joined by “and”; a condition that tells them apart may be missing. Equal entries are not always repeated. Entries after “also recorded” stand apart in the source; their conditions may differ. Where two headings read alike, the source gives them in different places. Marks after values point to notes of the source that are not given here. Numbered stars: 1 amine (or outer) side, 2 acyl side, 3 side chain; on linkers, the order of the positions; unused ones are H or OH. Bridge positions count the residues as written; N and C are the ends. Square brackets hold non-standard residues; d marks the D form. Peptide text beside a SMILES is read from it. I, II: the chains in the order shown. ξ: configuration not given here. Phe(4-tBu) = CC(C)(C)c1ccc(C[C@H](N)C(=O)O)cc1; Diglycolyl = O=C(COCC(=O)[*:2])[*:1]; NMeR = CN[C@@H](CCCNC(=N)N)C(=O)O; β3hE = N[C@@H](CCC(=O)O)CC(=O)O; Thr(3ξ) = CC(O)[C@H](N)C(=O)O; X1 = O=C(c1ccccc1C[*:2])[*:1]; Pen = CC(C)(S)[C@H](N)C(=O)O

Assays:
[1] = target: T1, α4β7 (Mus musculus, UniProt P26011+Q00651); assay: α4β7 receptor occupancy in whole blood and Peyer's patches after oral dosing; assay type: in vivo, C57BL/6 mice
T1 construct: mice were euthanized and whole blood/plasma and Peyer's patches were collected; from tissue; host or cells: whole blood and Peyer's patches of C57BL/6 mice
T1 sequence (Q00651 41-1039): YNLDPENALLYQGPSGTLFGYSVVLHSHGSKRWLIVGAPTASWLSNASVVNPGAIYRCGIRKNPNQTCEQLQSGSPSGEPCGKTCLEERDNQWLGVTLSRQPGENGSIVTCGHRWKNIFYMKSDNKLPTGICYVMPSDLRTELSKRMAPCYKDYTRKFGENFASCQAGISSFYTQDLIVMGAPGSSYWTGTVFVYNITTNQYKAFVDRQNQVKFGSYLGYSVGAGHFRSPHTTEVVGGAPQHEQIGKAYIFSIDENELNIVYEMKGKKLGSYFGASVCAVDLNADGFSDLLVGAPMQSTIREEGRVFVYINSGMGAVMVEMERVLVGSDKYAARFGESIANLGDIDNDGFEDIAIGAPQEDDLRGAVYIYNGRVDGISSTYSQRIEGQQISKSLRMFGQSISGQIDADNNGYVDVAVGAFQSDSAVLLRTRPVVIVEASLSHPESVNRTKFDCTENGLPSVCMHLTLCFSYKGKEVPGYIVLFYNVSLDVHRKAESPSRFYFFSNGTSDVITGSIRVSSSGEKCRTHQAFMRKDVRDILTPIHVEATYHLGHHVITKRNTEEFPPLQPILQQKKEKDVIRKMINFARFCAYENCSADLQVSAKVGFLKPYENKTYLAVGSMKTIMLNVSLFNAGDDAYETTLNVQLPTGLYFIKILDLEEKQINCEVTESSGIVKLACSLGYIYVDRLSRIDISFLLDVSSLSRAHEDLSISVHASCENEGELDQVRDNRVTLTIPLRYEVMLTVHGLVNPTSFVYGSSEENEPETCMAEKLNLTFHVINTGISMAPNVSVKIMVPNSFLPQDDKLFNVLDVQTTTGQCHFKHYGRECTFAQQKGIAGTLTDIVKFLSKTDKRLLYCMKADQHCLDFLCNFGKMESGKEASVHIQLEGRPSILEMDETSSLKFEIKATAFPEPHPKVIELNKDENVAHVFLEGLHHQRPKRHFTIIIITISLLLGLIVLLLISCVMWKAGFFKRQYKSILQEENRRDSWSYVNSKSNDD
T1 sequence (P26011 20-806): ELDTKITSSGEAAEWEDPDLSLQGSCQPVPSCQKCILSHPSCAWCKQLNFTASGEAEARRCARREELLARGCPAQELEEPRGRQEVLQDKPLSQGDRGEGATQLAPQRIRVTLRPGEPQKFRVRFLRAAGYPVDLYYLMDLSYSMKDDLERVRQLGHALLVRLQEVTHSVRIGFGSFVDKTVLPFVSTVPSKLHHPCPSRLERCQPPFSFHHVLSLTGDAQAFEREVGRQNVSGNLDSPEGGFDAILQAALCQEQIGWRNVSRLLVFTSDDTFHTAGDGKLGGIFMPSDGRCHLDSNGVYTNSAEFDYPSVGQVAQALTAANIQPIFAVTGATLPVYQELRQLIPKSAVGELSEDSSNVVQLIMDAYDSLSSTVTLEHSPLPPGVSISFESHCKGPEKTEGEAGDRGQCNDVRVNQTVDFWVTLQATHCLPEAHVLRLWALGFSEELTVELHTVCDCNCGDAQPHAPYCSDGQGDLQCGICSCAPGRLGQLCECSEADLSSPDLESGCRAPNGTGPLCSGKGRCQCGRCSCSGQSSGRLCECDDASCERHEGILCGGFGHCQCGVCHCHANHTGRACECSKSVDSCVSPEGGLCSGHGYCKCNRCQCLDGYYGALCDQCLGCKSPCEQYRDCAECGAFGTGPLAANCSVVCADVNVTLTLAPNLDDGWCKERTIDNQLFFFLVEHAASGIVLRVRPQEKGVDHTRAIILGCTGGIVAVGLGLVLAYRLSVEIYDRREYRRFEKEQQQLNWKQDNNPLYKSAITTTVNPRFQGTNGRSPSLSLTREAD
Experimental: One hour following dosing, mice were euthanized and whole blood/plasma and Peyer's patches were collected. Peyer's patches were dispersed in 1 mL RPMI medium with 2% FBS without washing step. Whole blood and single cell suspension of Peyer's patches (100 uL out of 1 mL total) were submitted for flow cytometry to determine α4β7 receptor occupancy. % RO=(1−(% positive test sample/% positive median vehicle control))*100. Plasma and Peyer's patches dispersed in single cell suspension (500 uL of 1 mL total) were also analyzed for drug exposure.

[2] = Oral bioavailability in cynomolgus monkeys; details: cynomolgus monkey, in vivo
[3] = target: T2, α4β7 integrin (Homo sapiens, UniProt P13612+P26010); assay: Inhibition of MAdCAM1-mediated CD4+ T cell proliferation (plate bound anti-CD3 + MAdCAM1); assay type: cell-based
T2 construct: endogenous in cells; host or cells: primary human CD4+ T cells enriched from PBMCs of healthy donors
T2 sequence (P13612 34-1032): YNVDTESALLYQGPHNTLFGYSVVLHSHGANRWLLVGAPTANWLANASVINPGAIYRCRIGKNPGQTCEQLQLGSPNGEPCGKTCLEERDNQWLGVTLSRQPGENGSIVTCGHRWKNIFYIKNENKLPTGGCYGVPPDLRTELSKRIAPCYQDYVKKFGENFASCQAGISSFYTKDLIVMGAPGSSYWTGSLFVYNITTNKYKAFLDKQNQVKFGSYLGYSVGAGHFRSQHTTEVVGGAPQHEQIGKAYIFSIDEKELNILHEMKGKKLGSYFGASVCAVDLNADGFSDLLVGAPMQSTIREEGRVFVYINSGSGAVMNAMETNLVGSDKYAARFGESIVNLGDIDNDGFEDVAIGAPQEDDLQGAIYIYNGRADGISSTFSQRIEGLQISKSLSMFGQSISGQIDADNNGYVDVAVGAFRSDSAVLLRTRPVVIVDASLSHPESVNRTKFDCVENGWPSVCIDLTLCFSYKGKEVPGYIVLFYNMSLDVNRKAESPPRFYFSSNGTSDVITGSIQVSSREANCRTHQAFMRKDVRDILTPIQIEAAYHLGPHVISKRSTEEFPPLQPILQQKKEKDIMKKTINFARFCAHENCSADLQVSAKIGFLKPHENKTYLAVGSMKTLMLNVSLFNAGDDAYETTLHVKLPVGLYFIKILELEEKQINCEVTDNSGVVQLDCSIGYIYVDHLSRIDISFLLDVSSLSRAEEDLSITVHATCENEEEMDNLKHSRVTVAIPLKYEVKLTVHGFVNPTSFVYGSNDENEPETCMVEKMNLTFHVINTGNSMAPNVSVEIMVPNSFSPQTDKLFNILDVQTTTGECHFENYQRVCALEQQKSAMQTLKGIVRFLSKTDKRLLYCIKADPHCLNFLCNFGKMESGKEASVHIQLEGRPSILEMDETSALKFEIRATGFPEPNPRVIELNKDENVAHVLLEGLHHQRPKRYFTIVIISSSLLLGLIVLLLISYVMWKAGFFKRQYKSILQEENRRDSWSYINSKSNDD
T2 sequence (P26010 20-798): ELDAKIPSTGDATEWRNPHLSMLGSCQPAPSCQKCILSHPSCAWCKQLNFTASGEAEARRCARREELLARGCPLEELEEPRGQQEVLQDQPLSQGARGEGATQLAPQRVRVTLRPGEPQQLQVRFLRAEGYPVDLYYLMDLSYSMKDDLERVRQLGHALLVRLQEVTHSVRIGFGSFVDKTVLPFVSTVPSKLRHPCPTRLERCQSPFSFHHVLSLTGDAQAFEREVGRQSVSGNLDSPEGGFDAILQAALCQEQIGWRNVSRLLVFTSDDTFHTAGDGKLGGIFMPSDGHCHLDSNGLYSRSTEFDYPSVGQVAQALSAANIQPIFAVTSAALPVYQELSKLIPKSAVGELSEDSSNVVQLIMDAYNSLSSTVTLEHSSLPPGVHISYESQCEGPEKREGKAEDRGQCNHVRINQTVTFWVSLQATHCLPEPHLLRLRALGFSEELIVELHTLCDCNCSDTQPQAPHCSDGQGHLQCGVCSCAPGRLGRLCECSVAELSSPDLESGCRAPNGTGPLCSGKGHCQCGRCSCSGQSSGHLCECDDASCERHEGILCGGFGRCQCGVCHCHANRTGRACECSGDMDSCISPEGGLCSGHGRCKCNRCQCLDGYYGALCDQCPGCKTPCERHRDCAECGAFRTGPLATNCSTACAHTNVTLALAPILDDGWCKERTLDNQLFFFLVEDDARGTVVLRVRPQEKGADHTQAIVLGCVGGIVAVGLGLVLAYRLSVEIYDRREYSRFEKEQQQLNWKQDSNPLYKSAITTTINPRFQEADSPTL
Experimental: PBMCs were purified from healthy human donors and enrichment of CD4+ T cells was performed. […] Phenotype, distribution of T-helper (Th) subsets and % RO analyses were conducted by flow cytometry of freshly stained live samples.

[4] = clinical; details: male, human, in vivo; for AUC(0-inf): AUCinf (ng · h/mL); for AUC(0-t): AUCt (ng · h/mL); for AUC: AUCtau (ng · h/mL); for Cmax: Cmax (ng/mL)
Experimental: (§1) Dose escalation proceeded from 100 mg, 300 mg, 1000 mg, 1400 mg. Subjects in the 300 mg dose cohort received treatment in the fasted state on one occasion and following a high fat meal on a second occasion in a crossover fashion. The high fat meal consisted of two eggs fried in butter, two strips of bacon, two slices of toast with butter, four ounces of hash brown potatoes and 240 ml of whole milk. During Part 1, subjects refrained from food and drink except water for 10 hours before and for four hours after dosing with the exception of subjects in the 300 mg dose cohort during the fed treatment.
(§2) Part 2 was a randomized, placebo-controlled, double-blind multiple ascending dose study in 50 male subjects divided equally into 5 cohorts. […] Doses evaluated in Part 2 included 100 mg, 300 mg and 1000 mg. During Part 2, two cohorts of subjects (100 mg and 300 mg) received food approximately 30 minutes prior to each dose and another two cohorts of subjects (300 mg and 100 mg) refrained from food for 10 hours before and for 1 hour after dosing.
(§3) Study 1: The single and multiple ascending dose phase of the study consisted of sequential dose escalations in 10 subject per dose cohort. […] Dose solutions were formulated in 50 mM phosphate buffer pH 7.4 and were prepared weekly by a qualified pharmacist.
(§4) Blood samples for pharmacokinetics were collected predose and for 48 hours postdose following single doses. In the multiple ascending dose phase, blood samples were obtained on Days 1-3 and 14-16; on Days 8 samples were obtained predose, 4, and 12 hours. On Day 10 of the MAD, subjects were required to collect all urine for the 0-6, 6-12, 12-18, and 18-24 hour intervals postdose and on Day 11 subjects were required to collect fecal samples.
(§5) The drug and internal standard were extracted from the matrix by a protein precipitation procedure. The limit of quantitation was 0.2 ng/mL, 20 ng/mL, and 100 ng/mL in plasma, urine, and feces, respectively. […] Coefficient of determinations for the calibration curves were at least 0.99 for all matrices. The interassay accuracy (% bias) ranged from −2.2% to 1.0% for plasma, −3.8% to 9.0% for urine and −5.0 to 5.2% for feces. Interassay precision (% CV) ranged from 3.7% to 7.7% for plasma, 2.8% to 7.0% for urine, and 1.2% to 5.2% for feces.
(§6) Pharmacokinetic parameters were estimated by noncompartmental methods using Phoenix WinNonlin (Certara, Princeton N.J.). Peak plasma concentration (Cmax) and time to peak plasma concentration (Tmax) were observed values. The elimination rate was estimated from the slope of the least-squares regression on the terminal log-linear phase. Area under the plasma concentration-time curve from time zero to the last quantifiable concentration (AUCt) was estimated by a linear trapezoidal method and was extrapolated to infinity (AUC∞) by dividing the last quantifiable concentration b the elimination rate.

[5] = tested on: integrin β7, integrin α4 and CCR9 on cultured CD3+ cells; assay: Gut homing receptor expression on T cells cultured with ATRA; assay type: cell-based, B6.SJL mice; details: 100 and 1000 nM in culture
Experimental: Purified CD3+ cells were isolated from B6.SJL (CD45.1+) donor mice and cultured in the presence of anti-CD3/anti-CD28 beads and IL-2 to induce T cell activation and proliferation. In some culture conditions, Compound A and/or ATRA were added. To track the cells in vivo, ATRA− and ATRA+ cells were labeled with CMFDA and CTFR respectively. These labeled cells were then co-injected into C57BL/6 (CD45.2+) recipient mice.
Eighteen (18) B6.SJL (CD45.1+) donor mice were acclimated for 3 to 9 weeks before the start of the study and were 11 to 16 weeks old at culture setup (Day 0). On Day 0, spleen and lymph node cells were isolated from donor mice and pooled. CD3+ cells were enriched using […] Technologies kit catalog number 19851. Purity of enriched cells was confirmed by flow cytometry.
Approximately 44% of the cells were then cultured at 1.5×10^6/mL in the presence of anti-CD3/CD28 beads (Dynabeads, ThermoFisher 11453D), with a 1:1 cell to bead ratio (ATRA−, per Table 4 below). […] All-trans retinoic acid (ATRA) was then added to these cultures at a concentration of 0.1 μM.
On Day, 1 IL-2 was added to all cultures to reach a concentration of 30 U/mL.

[6] = Systemic absorption in animal studies; assay type: in vivo; details: oral
[7] = target: T3, α4β7 (Homo sapiens, UniProt P13612+P26010); assay: α4β7 internalization / surface expression by flow cytometry; assay type: cell-based
T3 construct: endogenous in cells
T3 sequence (P13612 34-1032): as the sequence (P13612 34-1032) above
T3 sequence (P26010 20-798): as the sequence (P26010 20-798) above
Excerpt: Blood samples from human donors were obtained from the Stanford Blood Center (Stanford, Calif.) under an RB-approved research protocol. Blood was drawn into BD Vacutainer sodium heparin blood collection tubes (BD Biosciences, Cat #362753). Peripheral blood mononuclear cells (PBMCs) were isolated from blood using a SepMate-50 tube and LymphoPrep per the manufacturer's protocol. CD4^+ T memory cells were enriched after PBMC isolation, using an EasySep kit (StemCell Technologies) per the manufacturer's protocol.
After incubation, an aliquot of cells from each reaction was stained for α4β7 expression.
After incubation, cells were washed extensively to remove excess peptide. For each reaction, an aliquot of cells was stained for α4β7 expression, while a separate aliquot was tested for adhesion to MAdCAM1.
An aliquot of cells were collected before and 24 h post peptide addition and stained for α4β7 expression. Afterwards, cells were extensively washed to remove excess peptide and incubated in fresh complete culture medium (without MnCl2) for an additional seven days. On day 1, 2, 4, 5, and 7 days after peptide washout, aliquots were stained for α4β7 expression.
Following peptide incubation, an aliquot of each reaction was stained for surface expression of α4β7 in preparation for flow cytometry. Cells were stained at 4° C. for 30 minutes, washed twice in DPBS containing 0.5% BSA (PBS/BSA), incubated with streptavidin BV421 (diluted 1:1000) at 4° C. for 30 minutes, washed twice in PBS/BSA, and then resuspended in PBS/BSA for analysis. Where relevant, a “fluorescence minus one” (FMO) sample was used as the staining control.
Samples were analyzed by flow cytometry on a BD (Franklin Lakes, N.J.) FACSVerse flow cytometer equipped with the following lasers: 405 nm (violet), 488 nm (blue), 561 nm (yellow-green), and 640 nm (red). CD4^+ T memory cells were identified as CD4^+, […], CD197^+ lymphocytes. α4β7 expression within CD4^+ T memory cells was identified based on staining with the Vedolizumab BV421 complex; staining was analyzed using BD FACSuite software, version 1.0.5. Where applicable, values were normalized to no-peptide controls and expressed as percentages to permit assessment of changes in the indicated parameter. Data were plotted and analyzed using Prism software (version 7; GraphPad, La Jolla, Calif.).

[8] = male, human, in vivo; for Ctrough: po
Experimental: as §1, §2, §3, §4, §5, §6

CC(C)C[C@@H]1NC(=O)[C@H](C(C)O)NC(=O)[C@H](CC(=O)O)NC(=O)[C@H](CO)NC(=O)[C@H](CCCNC(=N)N)N(C)C(=O)c2ccccc2CSC(C)(C)[C@@H](C(=O)N[C@@H](Cc2ccc(C(C)(C)C)cc2)C(=O)N[C@@H](CCC(=O)O)CC(=O)N[C@H](CCCCNC(=O)COCC(=O)NCCCC[C@@H](NC(=O)C[C@H](CCC(=O)O)NC(=O)[C@H](Cc2ccc(C(C)(C)C)cc2)NC(=O)[C@H]2NC(=O)[C@H](CC(C)C)NC(=O)[C@H](C(C)O)NC(=O)[C@H](CC(=O)O)NC(=O)[C@H](CO)NC(=O)[C@H](CCCNC(=N)N)N(C)C(=O)c3ccccc3CSC2(C)C)C(=O)O)C(=O)O)NC1=O (stereo partly drawn) [Compound A, ((2-Benzyl)-(N-Me-R)-Ser-Asp-Thr-Leu-Pen-(Phe(4-tBlu))-(β-homo-Glu)-(D-Lys)-OH)2 (SEQ ID NO: 5) and linker-DIG diglycolic acid] (I: [NMeR]SD[Thr(3ξ)]L[Pen][Phe(4-tBu)][β3hE][dK]-OH / II: [NMeR]SD[Thr(3ξ)]L[Pen][Phe(4-tBu)][β3hE][dK]-OH; linker I:9-II:9 via Diglycolyl; linker I:N-I:6, II:N-II:6 via X1)
receptor occupancy in whole blood and Peyer's patches, 30 mg/kg vs 3 mg/kg dose group ([1]; PO): significantly higher | receptor occupancy in Peyer's patches compared to whole blood ([1]; both dose groups (3 and 30 mg/kg PO)): significantly higher | receptor occupancy at 30 mg/kg ([1]; mouse, 30 mg/kg dose): 100% | bioavailability [2]: < 1% | IC50 [3]: 4.4 nM | IC50 ([3]; Average, read-out: IC50): 3.5 nM | inhibition of MAdCAM1-mediated proliferation of CD4+ T-cells ([3]; Compound A 1 uM, inactive analog 1 uM, vedolizumab 500 ng/mL, three days): completely abolished | IC50 ([3]; Donor 7, read-out: IC50): 1.6 nM | IC50 ([3]; Donor 8, read-out: IC50): 3.7 nM | IC50 ([3]; Donor 9, read-out: IC50): 5.2 nM | IC50 ([3]; Donor 11, read-out: IC50): 8 nM | AUC(0-inf) ([4]; 100 mg): 16.5 ng·h/mL | AUC(0-inf) ([4]; 300 mg): 57.6 ± 23.6 ng·h/mL | AUC(0-t) ([4]; 450 mg): 77.6 ± 37.1 ng·h/mL | AUC ([4]; 450 mg): 41.5 ± 10.7 ng·h/mL | Cmax ([4]; 450 mg): 9.96 ng/mL | AUC(0-inf) ([4]; 900 mg): 176 ± 98.5 ng·h/mL | AUC(0-t) ([4]; 900 mg): 159 ± 70.5 ng·h/mL | AUC ([4]; 900 mg): 159 ± 70.5 ng·h/mL | Cmax ([4]; 900 mg): 14.2 ng/mL | AUC(0-inf) ([4]; 1000 mg): 151 ± 31.7 ng·h/mL | AUC(0-t) ([4]; 1000 mg): 138 ± 33.7 ng·h/mL | Cmax ([4]; 1000 mg): 15.3 ± 4.11 ng/mL | AUC(0-inf) ([4]; 1400 mg): 260 ng·h/mL | AUC(0-t) ([4]; 1400 mg): 257 ± 173 ng·h/mL | Cmax ([4]; 1400 mg): 23.5 ng/mL | expression of CCR9, ATRA+/Compound A vs ATRA+/DMSO cultures [5]: did not appear to be affected | expression of integrin α4, ATRA+/Compound A vs ATRA+/DMSO cultures [5]: lower | proportion of integrin β7+ cells, ATRA+/Compound A vs ATRA+/DMSO cultures [5]: lower proportion; also recorded: smaller proportion | systemic absorption [6]: < 1% | induced internalization of α4β7, time and concentration dependence ([7]; CD4+ T memory cells, 10 nM for 0 to 48 h, 0-10 nM for 24 h): time (FIG. 15) and concentration (FIG. 16) dependent | Maximal α4β7 expression reduction (%) ([7]; Donor 1, normalized to no-peptide control): 53% | Maximal α4β7 expression reduction (%) ([7]; Donor 2, normalized to no-peptide control): 25% | Maximal α4β7 expression reduction (%) ([7]; Mean of two donors): 39% | additional incubation after washout until α4β7 expression recovered to control levels ([7]; human PBMCs, 10 nM 24 h then washout): 5 days and 4 to 5 days | α4β7 expression MFI difference compared to FMO control (4219 MFI) ([7]; human PBMCs, 10 nM, 24 h): 20.6% | α4β7 expression as measured by MFI ([7]; human PBMCs, 10 nM, 24 h, without MnCl2): 5090 MFI | AUCt (ng · h/mL) ([8]; 100 mg): 12.9 ± 7.27^ ng · h/mL | AUCinf ([8]; 300 mg): 46.3 ± 19.2 ng·h/mL | AUCinf (ng · h/mL) ([8]; 300 mg): 43.9 ± 13.0^d ng · h/mL | Cmax (ng/mL) ([8]; 300 mg): 4.72 ± 1.85^ ng/mL | AUCt ([8]; 450 mg): 132 ± 106 ng·h/mL | AUCtau ([8]; 450 mg): 72.1 ± 54.7 ng·h/mL | Cmax ([8]; 450 mg): 5.98 ± 1.61 ng/mL | AUCinf ([8]; 900 mg): 160 ± 96.5 ng·h/mL | AUCt ([8]; 900 mg): 140 ± 74.4 ng·h/mL | AUCtau ([8]; 900 mg): 140 ± 74.4 ng·h/mL | Cmax ([8]; 900 mg): 22.8 ± 16.9 ng/mL | Ctrough ([8]; 450 mg): 3.25 ± 3.5 ng/mL | Ctrough ([8]; 900 mg): 1.78 ± 2.3 ng/mL
